According to patent US12295967B2, “Pharmaceutical composition for prevention or treatment of flavivirus infection” (priority 2018, dated 2025):
pIC50: −log10 of the molar value. Starred links: 1 amine or outer side, 2 acyl side, 3 side chain; linkers in the order of their positions; H or OH if unused. Positions of bridges follow the written chain, without caps; N, C: chain ends. Non-standard residues stand in square brackets, D forms with d. Residues, ends and D or L forms follow the SMILES beside them. *: point of attachment. hTyr(3S-OH,4S-OH,3'-OSO3H) = N[C@H](C(=O)O)[C@H](O)[C@@H](O)c1ccc(O)c(OS(=O)(=O)O)c1; Orn(4R-OH,5R-OH) = O=C([C@H](C[C@@H](O)[C@@H](O)N[*:3])N[*:1])[*:2]; Pro(3S-OH,4S-Me) = C[C@H]1CN[C@H](C(=O)O)[C@H]1O; X1 = CCCCCOc1ccc(-c2cc(-c3ccc(C(=O)*)cc3)no2)cc1; Gln(3R-OH) = NC(=O)C[C@@H](O)[C@H](N)C(=O)O; Hyp = O=C(O)[C@@H]1C[C@@H](O)CN1

Target: T1, dengue virus helicase (Dengue virus type 2, UniProt P29990)
T1 construct: dengue virus helicase activity
Assay: Inhibition of dengue virus helicase activity
Type: biochemical
Details: not given
Description: A degree of inhibition of dengue virus helicase activity depending on the concentrations of 6 compounds was confirmed (IC50 values presented, FIG. 4).

T1 sequence (P29990 1476-2093): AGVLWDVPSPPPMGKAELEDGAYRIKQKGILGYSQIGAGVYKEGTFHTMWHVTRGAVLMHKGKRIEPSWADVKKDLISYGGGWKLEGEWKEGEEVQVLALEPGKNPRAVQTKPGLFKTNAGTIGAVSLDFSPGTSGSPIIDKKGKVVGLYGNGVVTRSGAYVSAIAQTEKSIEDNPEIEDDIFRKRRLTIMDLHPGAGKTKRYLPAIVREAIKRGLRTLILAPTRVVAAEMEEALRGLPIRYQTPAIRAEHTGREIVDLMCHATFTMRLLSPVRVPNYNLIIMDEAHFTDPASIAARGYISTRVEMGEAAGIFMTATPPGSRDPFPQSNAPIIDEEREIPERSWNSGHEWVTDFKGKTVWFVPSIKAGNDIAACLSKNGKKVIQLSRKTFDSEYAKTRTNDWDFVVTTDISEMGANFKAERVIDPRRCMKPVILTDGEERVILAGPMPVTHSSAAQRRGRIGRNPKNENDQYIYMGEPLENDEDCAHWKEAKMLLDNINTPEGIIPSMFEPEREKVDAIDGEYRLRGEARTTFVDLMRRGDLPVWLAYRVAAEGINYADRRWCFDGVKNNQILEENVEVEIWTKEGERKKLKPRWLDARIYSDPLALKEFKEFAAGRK

Question: With CC(=O)OCC1=C(C(=O)O)N2C(=O)[C@@H](NC(=O)Cc3cccs3)[C@H]2SC1 [Cephalothin] as the compound, how does the pIC50 read?
Answer: 4.59

Question: How did the pIC50 turn out when O=C1Nc2ccc(Cl)cc2[C@@](C#CC2CC2)(C(F)(F)F)O1 [Efavirenz] was run?
Answer: 4.41

Question: CCCCCOc1ccc(-c2cc(-c3ccc(C(=O)N[C@H]4C[C@@H](O)[C@@H](O)NC(=O)[C@@H]5[C@@H](O)[C@@H](C)CN5C(=O)[C@H]([C@H](O)CC(N)=O)NC(=O)[C@H]([C@H](O)[C@@H](O)c5ccc(O)c(OS(=O)(=O)O)c5)NC(=O)[C@@H]5C[C@@H](O)CN5C(=O)[C@H]([C@@H](C)O)NC4=O)cc3)no2)cc1 [Micafungin] (X1-[Orn(4R-OH,5R-OH)]T[Hyp][hTyr(3S-OH,4S-OH,3'-OSO3H)][Gln(3R-OH)][Pro(3S-OH,4S-Me)]; lactam 1-C) was tested. Which pIC50 did it give?
Answer: 5.30

Same assay, conditions: dengue virus helicase activity; read-out: IC50, inhibitory target enzyme Helicase

Question: Bleomycin was tested. Which pIC50 did it give?
Answer: 5.85

Question: C[C@@H]1[C@H](O)[C@@H](C)/C=C/C=C/CC/C=C/C=C/C=C/C=C/C(O[C@H]2O[C@H](C)[C@@H](O)[C@H](N)[C@@H]2O)CC2O[C@](O)(CC(O)C(O)CCC(O)CC(O)CC(O)CC(=O)O[C@H]1C)CC(O)C2C(=O)O (stereo partly shown) [Nystatin] was tested. Which pIC50 did it give?
Answer: 4.88

Question: CCCCCCCCCCCCCCCCOP(=O)([O-])OCC[N+](C)(C)C [Miltefosine] was tested. Which pIC50 did it give?
Answer: 4.76

Test system: DENV
Assay: DENV viremia reduction in mouse blood, dengue infection model (AG129 mouse)
Type: in vivo
Details: micafungin sodium IP, miltefosine oral, FIG. 5
Protocol: On day 3, blood was collected from each mouse and transferred to an EDTA coated anticoagulant tube. After shaking for 10 minutes and gently mixing, 20 μl of each sample was analyzed by whole blood count using HEMAVET 950FS (Drew Scientific). The measured value of each factor was semi-quantified relative to that of the uninfected control. Plasma was isolated by centrifugation at 8000 g and 4° C. for 15 minutes in order to analyze cytokine hyperemia and expression changes. Plasma virus titer (viremia) and viral RNA expression in whole blood were analyzed by quantitative real-time PCR (qRT-PCR).
For target gene amplification, each primer was designed taking into account overlap between two exons of the target gene having a GC content of less than 50% and an expected amplicon size of about 100 bps. For quantification of viral RNA, quantitative real time PCR (qRT-PCR) was performed. Each reaction was performed in 20 μL volume using SYBR green master mix. Quantstudio 3™ (Applied Biosystems Inc., USA) was used for the present study in two-stage amplification process. […]
Virus in plasma was calculated according to an equation of standard curve. […] For cell-based group and mouse organ samples (including whole blood), semi-quantitative viral RNA was analyzed for GAPDH as an endogenous control. […]

Question: With CCCCCCCCCCCCCCCCOP(=O)([O-])OCC[N+](C)(C)C [Miltefosine] as the compound, how does the dengue viremia read?
Answer: significantly reduced

Question: With CCCCCOc1ccc(-c2cc(-c3ccc(C(=O)N[C@H]4C[C@@H](O)[C@@H](O)NC(=O)[C@@H]5[C@@H](O)[C@@H](C)CN5C(=O)[C@H]([C@H](O)CC(N)=O)NC(=O)[C@H]([C@H](O)[C@@H](O)c5ccc(O)c(OS(=O)(=O)O)c5)NC(=O)[C@@H]5C[C@@H](O)CN5C(=O)[C@H]([C@@H](C)O)NC4=O)cc3)no2)cc1 [Micafungin] (X1-[Orn(4R-OH,5R-OH)]T[Hyp][hTyr(3S-OH,4S-OH,3'-OSO3H)][Gln(3R-OH)][Pro(3S-OH,4S-Me)]; lactam 1-C) as the compound, how does the dengue viremia read?
Answer: significantly reduced

Target: T2, dengue virus RdRp (Dengue virus type 2, UniProt P29990)
T2 construct: dengue virus RdRp enzyme activity
Assay: biochemical
Details: dengue virus RdRp enzyme activity; read-out: IC50, inhibitory target enzyme RdRp

T2 sequence (P29990 2492-3391): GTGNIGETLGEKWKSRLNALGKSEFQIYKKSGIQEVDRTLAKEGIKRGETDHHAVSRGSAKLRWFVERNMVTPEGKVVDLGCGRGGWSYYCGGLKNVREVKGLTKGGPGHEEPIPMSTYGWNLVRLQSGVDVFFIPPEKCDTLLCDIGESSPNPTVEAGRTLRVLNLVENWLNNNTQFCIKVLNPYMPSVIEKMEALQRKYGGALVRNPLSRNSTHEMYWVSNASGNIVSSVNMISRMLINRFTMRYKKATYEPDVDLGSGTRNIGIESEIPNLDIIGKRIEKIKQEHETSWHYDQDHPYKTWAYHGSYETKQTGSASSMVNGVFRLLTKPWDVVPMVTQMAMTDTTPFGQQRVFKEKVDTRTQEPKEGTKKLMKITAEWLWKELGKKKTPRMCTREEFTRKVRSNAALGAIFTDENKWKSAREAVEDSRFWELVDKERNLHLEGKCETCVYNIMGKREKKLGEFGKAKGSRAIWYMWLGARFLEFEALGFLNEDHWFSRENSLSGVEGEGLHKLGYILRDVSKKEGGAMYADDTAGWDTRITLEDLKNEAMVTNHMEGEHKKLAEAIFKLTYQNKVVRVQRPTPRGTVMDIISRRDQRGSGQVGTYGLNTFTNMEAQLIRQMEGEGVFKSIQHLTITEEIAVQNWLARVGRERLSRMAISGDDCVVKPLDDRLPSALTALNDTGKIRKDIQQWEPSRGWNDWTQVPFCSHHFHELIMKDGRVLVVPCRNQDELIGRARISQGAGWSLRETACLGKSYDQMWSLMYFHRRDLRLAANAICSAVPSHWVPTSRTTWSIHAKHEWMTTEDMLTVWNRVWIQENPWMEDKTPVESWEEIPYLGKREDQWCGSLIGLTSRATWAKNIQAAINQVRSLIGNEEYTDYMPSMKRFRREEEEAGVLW

Question: NCC[C@H](O)C(=O)N[C@@H]1C[C@H](N)[C@@H](O[C@H]2O[C@H](CN)[C@@H](O)[C@H](O)[C@H]2O)[C@H](O)[C@H]1O[C@H]1O[C@H](CO)[C@@H](O)[C@H](N)[C@H]1O [Amikacin] was tested. Which pIC50 did it give?
Answer: 4.61

Question: With [NH2][Pt]1([NH2])[O]CC(=O)[O]1 [Nedaplatin] as the compound, how does the pIC50 read?
Answer: 4.06

Question: How did the pIC50 turn out when CCN[C@@H]1C[C@H](N)[C@@H](O[C@H]2OC(CN)=CC[C@H]2N)[C@H](O)[C@H]1O[C@H]1OC[C@](C)(O)[C@H](NC)[C@H]1O [Netimicin] was run?
Answer: 5.54

Question: With NC[C@H]1O[C@H](O[C@H]2[C@H](O)[C@@H](O[C@H]3O[C@H](CO)[C@@H](O)[C@H](N)[C@H]3O)[C@H](N)C[C@@H]2N)[C@H](N)C[C@@H]1O [Tobramycin] as the compound, how does the pIC50 read?
Answer: 5.52

Question: CCN(CCO)CCCC(C)Nc1ccnc2cc(Cl)ccc12 (stereo not shown) [Hydroxychloroquine] was tested. Which pIC50 did it give?
Answer: 4.02

Question: With CN1CCN(CCCN2c3ccccc3Sc3ccc(C(F)(F)F)cc32)CC1 [Trifluoperazine] as the compound, how does the pIC50 read?
Answer: 4.66

Question: With Capreomycin as the compound, how does the pIC50 read?
Answer: 5.24

Question: How did the pIC50 turn out when Gentamicin Sulfate was run?
Answer: 5.64

Question: How did the pIC50 turn out when CN(C)Cc1ccc(S(=O)(=O)n2ccc(/C=C/C(=O)NO)c2)cc1 [Resminostat] was run?
Answer: 4.19

Question: NC[C@@H]1O[C@H](O[C@H]2[C@@H](O)[C@H](O[C@@H]3[C@@H](O)[C@H](N)C[C@H](N)[C@H]3O[C@H]3O[C@H](CO)[C@@H](O)[C@H](O)[C@H]3N)O[C@@H]2CO)[C@H](N)[C@@H](O)[C@@H]1O [Paromomycin] was tested. Which pIC50 did it give?
Answer: 5.35

Question: CN[C@@H]1[C@H](O[C@H]2[C@H](O[C@H]3[C@H](O)[C@@H](O)[C@H](NC(=N)N)[C@@H](O)[C@@H]3NC(=N)N)O[C@@H](C)[C@]2(O)CO)O[C@@H](CO)[C@H](O)[C@H]1O [Dihydrostreptomycin] was tested. Which pIC50 did it give?
Answer: 4.74
